Tested on: rat adrenal angiotensin II receptors
Assay: displacement of radioligand [^125 I]-SIAII specifically bound to rat adrenal angiotensin II receptors
Type: binding
Settings: 60 min at 25° C.
Protocol: The affinity of the products of the Examples for angiotensin II receptors is evaluated by the technique of displacing a radioligand specifically bound to rat adrenal angiotensin II receptors.
An aliquot of a rat adrenal gland homogenate incubates in the presence of a single concentration of [^125 I]-SIAII (Sar^1,Tyr^4,Ile^8 -angiotensin II), which is an angiotensin II receptor antagonist, and two concentrations of competing agents (10^-5 M, 10^-7 M) for 60 min at 25° C.
The reaction is completed by the addition of a buffer, followed by rapid filtration through glasspaper filters. The non-specific binding is determined in the presence of angiotensin II.
The results are expressed, for the concentrations tested, as the percentage displacement of the radioligand specifically bound to the adrenal angiotensin II receptors.

Structure (SMILES): CCCc1nc(NC(C)=O)sc1Cc1ccc(NC(=O)c2ccccc2S(=O)(=O)O)cc1 [Example 36, 2-[4-(2-Acetamido-4-propylthiazol-5-yl-methyl)phenylaminocarbonyl]benzosulfonic acid]
- % displacement of the labeled ligand (1E-5M competing agent, 10 µM): 84%
- % displacement of the labeled ligand (1E-7M competing agent, 0.1 µM): 3%

Structure (SMILES): CCCc1nc(NCC(=O)OC)sc1Cc1ccc(NC(=O)c2ccccc2S(=O)(=O)O)cc1 [Example 22, Methyl (4-propyl-5-(4-(2-sulfobenzoylamino)benzyl)thiazol-2-yl)aminoacetate]
- % displacement of the labeled ligand (1E-5M competing agent, 10 µM): 89%
- % displacement of the labeled ligand (1E-7M competing agent, 0.1 µM): 5%

Structure (SMILES): CCCCCc1nc(N)sc1Cc1ccc(NC(=O)c2ccccc2S(=O)(=O)O)cc1 [Example 44, 2-[4-(2-Amino-4-pentylthiazol-5-ylmethyl)phenylaminocarbonyl]benzosulfonic acid]
- % displacement of the labeled ligand (1E-5M competing agent, 10 µM): 91%
- % displacement of the labeled ligand (1E-7M competing agent, 0.1 µM): 44%

Structure (SMILES): CCCc1nc(C)sc1Cc1ccc(NC(=O)c2ccccc2S(=O)(=O)O)cc1 [Example 11, 2-[4-(2-methyl-4-propylthiazol-5-ylmethyl)phenylaminocarbonyl]benzosulfonic acid]
- % displacement of the labeled ligand (1E-5M competing agent, 10 µM): 94%
- % displacement of the labeled ligand (1E-7M competing agent, 0.1 µM): 59%

Structure (SMILES): CCOC(=O)CNc1nc(C)c(Cc2ccc(NC(=O)c3ccccc3C(=O)O)cc2)s1 [Example 7, Ethyl (4-methyl-5-(4-(2-carboxybenzoylamino)benzyl)thiazol-2-yl)aminoacetate]
- % displacement of the labeled ligand (1E-5M competing agent, 10 µM): 35%
- % displacement of the labeled ligand (1E-7M competing agent, 0.1 µM): 0%

Structure (SMILES): CCCc1nc(N)sc1Cc1ccc(NC(=O)c2ccccc2S(=O)(=O)O)cc1 [Example 33, 2-[4-(2-Amino-4-propylthiazol-5-ylmethyl)phenylaminocarbonyl]benzosulfonic acid]
- % displacement of the labeled ligand (1E-5M competing agent, 10 µM): 85%
- % displacement of the labeled ligand (1E-7M competing agent, 0.1 µM): 27%

Structure (SMILES): Cc1nc(C)c(Cc2ccc(NC(=O)c3ccccc3C(=O)O)cc2)s1 [Example 4, 2-[4-((2,4-Dimethylthiazol-5-yl)methyl)phenylaminocarbonyl]benzoic acid]
- % displacement of the labeled ligand (1E-5M competing agent, 10 µM): 58%
- % displacement of the labeled ligand (1E-7M competing agent, 0.1 µM): 0%

Structure (SMILES): CCCc1nc(N)sc1Cc1ccc(NC(=O)c2c(Cl)ccc(Cl)c2C(=O)O)cc1 [Example 41, 2-[4-(2-Amino-4-propylthiazol-5-ylmethyl)phenylaminocarbonyl]-3,6-dichlorobenzoic acid]
- % displacement of the labeled ligand (1E-5M competing agent, 10 µM): 87%
- % displacement of the labeled ligand (1E-7M competing agent, 0.1 µM): 9%

Structure (SMILES): CCCc1nc(CNC(=O)OCC)sc1Cc1ccc(NC(=O)c2ccccc2S(=O)(=O)O)cc1 [Example 30, 2-[4-(2-Ethoxycarbonylaminomethyl-4-propylthiazol-5-ylmethyl)phenylaminocarbonyl]benzosulfonic acid]
- % displacement of the labeled ligand (1E-5M competing agent, 10 µM): 84%
- % displacement of the labeled ligand (1E-7M competing agent, 0.1 µM): 29%

Structure (SMILES): CCCc1nc(SCCCC(=O)OCC)sc1Cc1ccc(NC(=O)c2ccccc2S(=O)(=O)O)cc1 [Example 15, Ethyl 4-[[4-propyl-5-(4-(2-sulfobenzoylamino)benzyl)thiazol-2-yl]mercapto]butyrate]
- % displacement of the labeled ligand (1E-5M competing agent, 10 µM): 79%
- % displacement of the labeled ligand (1E-7M competing agent, 0.1 µM): 0%

Structure (SMILES): CCCc1nc(CC(=O)OC)sc1Cc1ccc(NC(=O)c2ccccc2S(=O)(=O)O)cc1 [Example 26, 2-[4-(2-methoxycarbonylmethyl-4-propylthiazol-5-ylmethyl)phenylaminocarbonyl]benzosulfonic acid]
- % displacement of the labeled ligand (1E-5M competing agent, 10 µM): 86%
- % displacement of the labeled ligand (1E-7M competing agent, 0.1 µM): 22%

Structure (SMILES): CCCc1nc(COC)sc1Cc1ccc(NC(=O)c2ccccc2S(=O)(=O)O)cc1 [Example 19, 2-[4-(2-Methoxymethyl-4-propylthiazol-5-yl-methyl)phenylaminocarbonyl]benzosulfonic acid]
- % displacement of the labeled ligand (1E-5M competing agent, 10 µM): 89%
- % displacement of the labeled ligand (1E-7M competing agent, 0.1 µM): 55%

Structure (SMILES): CCCCCc1nc(C)sc1Cc1ccc(NC(=O)c2ccccc2S(=O)(=O)O)cc1 [Example 40, 2-[4-(2-methyl-4-pentylthiazol-5-ylmethyl)phenylaminocarbonyl]benzosulfonic acid]
- % displacement of the labeled ligand (1E-5M competing agent, 10 µM): 88%
- % displacement of the labeled ligand (1E-7M competing agent, 0.1 µM): 59%
